Assay results: PMC11784145, “Efficacy and in vitro pharmacological assessment of novel N-hydroxypyridinediones as hepatitis B virus ribonuclease H inhibitors” (Antimicrobial Agents and Chemotherapy, 2024)

Columns and labels:
[1] = Parallel artificial membrane permeability assay (PAMPA); format: in vitro ADME
Method: Compound Papp values were determined by normalizing the experimental compound absorbance to the compounds’ absorbances at equilibrium, membrane porosity, buffer volume, and time (s). Two or more replicate assays were obtained on separate days for each pH.

[2] = Microsome stability; format: in vitro ADME, human
Method: Human liver microsomes (gender pooled, 50 individuals) were purchased from BioIVT and stored at −80°C until use. […] Reactions were initiated by addition of 1.2 mM NADPH. […] Microsomal proteins were pelleted at 4,000 × g and the supernatant was analyzed via LCMS/MS. […] The ln percent remaining values were plotted against time, the negative slope was taken (k), and compound half-life (t1/2) was determined using ln2/k. Intrinsic clearance (Clint [µL/min/mg]) was calculated by (V × ln2)/t1/2, where V is the incubation volume (µL) divided by the protein concentration in the reaction (mg) ([31]).

[3] = Solubility limit, turbidimetric assay; format: physicochemical; conditions: for Average Sol (solubility limit) / Sol 1 (solubility limit) / Sol 2 (solubility limit) / Sol 3 (solubility limit) / Sol 4 (solubility limit): upper limit 200 µM
Method: Solubility limits were determined by a turbidimetric assay, as described ([27]), with the solubility limit being defined as the compound concentration where light scattering began to rise. Two or more replicate assays were performed for each compound at each pH on different days.

[4] = test system: HepDES19 cells; conditions: read-out: HepDES19 CC50; 72 h, MTS; highest concentration tested 100 µM; mean ± SD
[5] = test system: HBV replication (HBV plus-polarity DNA strand); experiment: HBV replication inhibition, strand preferential qPCR in hepDES19 cells; format: cell-based, hepatitis B virus; conditions: for EC50: 72 h exposure, HBV plus-polarity strand suppression, highest concentration tested 100 µM, mean ± SD, read-out: HepDES19 EC50
Method: HBV replication inhibition was measured in hepDES19 cells following 72 h compound exposure without compound replenishment. EC50 values were determined by HBV plus-polarity strand suppression using a strand preferential qPCR assay, as described previously ([28]). Three or more replicate values were obtained on different days.

[6] = molecular target: T1, human ribonuclease H1 (huRNase H1) (Homo sapiens, UniProt O60930); experiment: Human RNase H1 inhibition, fluorescent biochemical assay; conditions: recombinant huRNase H1, RNA:DNA heteroduplex substrate
T1 construct: made in house; host or cells: Escherichia coli
T1 sequence (O60930 1-286): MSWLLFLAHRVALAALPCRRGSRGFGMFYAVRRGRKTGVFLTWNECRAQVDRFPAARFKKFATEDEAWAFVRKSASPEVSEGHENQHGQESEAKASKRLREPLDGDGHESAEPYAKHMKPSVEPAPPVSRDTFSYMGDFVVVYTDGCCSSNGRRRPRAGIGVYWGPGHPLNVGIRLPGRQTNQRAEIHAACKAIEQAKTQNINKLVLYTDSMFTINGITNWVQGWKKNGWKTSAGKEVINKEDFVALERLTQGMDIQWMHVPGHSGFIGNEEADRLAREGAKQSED
Method: Recombinant human ribonuclease H1 (huRNase H1) was expressed in Escherichia coli and purified by nickel affinity chromatography, as described previously ([30]). […] The heteroduplex substrate was prepared, as described by Ponzar et al. ([30]). Reactions were initiated by the addition of MgCl2 (5 mM final) and were performed on a Biotek Synergy HTX multi-mode plate reader at 28°C.
Maximum rates of fluorescence increase were calculated using the Biotek Gen5 v3.15 software and percentage activity was determined for each compound concentration by subtracting rates from no enzyme reactions and normalizing to DMSO reactions. […] Reactions were performed at least three times on separate days.

[7] = pH 5 (fed simulated intestinal fluid)
[8] = pH 6.5 (fasted simulated intestinal fluid)

Structure (SMILES) | Avg Papp (PAMPA) ([1]; FeSSIF pH 5) [nm/s] | Interpretation (PAMPA Papp) ([1]; FeSSIF pH 5) | Papp 1 (PAMPA) ([1]; FeSSIF pH 5, replicate 1) [nm/s] | Papp 2 (PAMPA) ([1]; FeSSIF pH 5, replicate 2) [nm/s] | Avg Papp (PAMPA) ([1]; pH 7.4) [nm/s] | Interpretation (PAMPA Papp) ([1]; pH 7.4) | Papp 1 (PAMPA) ([1]; pH 7.4, replicate 1) [nm/s] | Papp 2 (PAMPA) ([1]; pH 7.4, replicate 2) [nm/s] | Average Sol (solubility limit) [3, 7] [µM] | Sol 1 (solubility limit) ([3]; pH 5, replicate 1) [µM] | Sol 2 (solubility limit) ([3]; pH 5, replicate 2) [µM] | Average Sol (solubility limit) [3, 8] [µM] | Sol 1 (solubility limit) ([3]; pH 6.5, replicate 1) [µM] | Sol 2 (solubility limit) ([3]; pH 6.5, replicate 2) [µM] | Average Sol (solubility limit) ([3]; pH 7.4 (DMEM-F12 with 10% FBS)) [µM] | Sol 1 (solubility limit) ([3]; pH 7.4, replicate 1) [µM] | Sol 2 (solubility limit) ([3]; pH 7.4, replicate 2) [µM] | CC50 [4] [µM] | HepDES19 SI (CC50/EC50) [5] | EC50 [5] [µM] | further results
CC(=NOCc1ccc(C(F)(F)F)cc1)c1c(C)cc(=O)n(O)c1O [Compound 1235] | 180 | H (H: Papp > 1*10-6) | 227 | 132 | 33.4 | H (H: Papp > 1*10-6) | 22.9 | 44 | > 200 | > 200 | > 200 | 167 | 100 | > 200 | > 200 | > 200 | > 200 | 49.2 ± 19.2 | 26.3 | 1.87 ± 0.351 | Clearance (intrinsic clearance, Clint) ([2]; human, microsomes): 5.48 µL/min/mg; Half-life ([2]; human, microsomes): >30 min; Sol 3 (solubility limit) ([3]; pH 6.5, replicate 3): > 200 µM
COc1ccc(CON=C(C)c2c(C)cc(=O)n(O)c2O)cc1OC [Compound 1669] | 567 | H (H: Papp > 1*10-6) | 579 | 555 | 21.2 | H (H: Papp > 1*10-6) | 20.3 | 22 | > 200 | > 200 | > 200 | > 200 | > 200 | > 200 | > 200 | > 200 | > 200 | 91 ± 15.6 | 80.6 | 1.13 ± 0.955 | 
CC(=NOCc1ccccc1C)c1c(C)cc(=O)n(O)c1O [Compound 1681] | 300 | H (H: Papp > 1*10-6) | 285 | 315 | 47.3 | H (H: Papp > 1*10-6) | 31.1 | 93.9 | > 200 | > 200 | > 200 | > 200 | > 200 | > 200 | 106 | 25 | 100 | > 100 | 25.2 | 3.97 ± 1.19 | Papp 3 (PAMPA) ([1]; pH 7.4, replicate 3): 46.9 nm/s; Papp 4 (PAMPA) ([1]; pH 7.4, replicate 4): 17.4 nm/s; Sol 3 (solubility limit) ([3]; pH 7.4, replicate 3): > 200 µM; Sol 4 (solubility limit) ([3]; pH 7.4, replicate 4): 100 µM
CC(=NOCc1ccc(Br)cc1)c1c(C)cc(=O)n(O)c1O [Compound 1717] |  |  |  |  | 16.1 | H (H: Papp > 1*10-6) | 16.1 | 16.1 | 100 | 100 | 100 | 50 | 50 | 50 | 138 | 50 | > 200 | 76.7 ± 30.3 | 52.7 | 1.13 ± 0.186 | Solubility limit category [3, 8]: partially soluble (partially soluble (100–1 µM)); Sol 3 (solubility limit) ([3]; pH 6.5, replicate 3): 50 µM; Sol 3 (solubility limit) ([3]; pH 7.4, replicate 3): > 200 µM; Sol 4 (solubility limit) ([3]; pH 7.4, replicate 4): 100 µM
CC(=NOCc1ccccc1Br)c1c(C)cc(=O)n(O)c1O [Compound 1718] | 436 | H (H: Papp > 1*10-6) | 373 | 500 | 32.2 | H (H: Papp > 1*10-6) | 33.1 | 30.7 | > 200 | > 200 | > 200 | 138 | 50 | 100 | 150 | 50 | > 200 | 80.8 ± 27.5 | 34.1 | 2 ± 1.63 | Papp 3 (PAMPA) ([1]; pH 7.4, replicate 3): 32.9 nm/s; Sol 3 (solubility limit) ([3]; pH 6.5, replicate 3): > 200 µM; Sol 4 (solubility limit) ([3]; pH 6.5, replicate 4): > 200 µM; Sol 3 (solubility limit) ([3]; pH 7.4, replicate 3): > 200 µM
CC(=NOCc1ccc(OCc2ccccc2)cc1)c1c(C)cc(=O)n(O)c1O [Compound 1738] | 259 | H (H: Papp > 1*10-6) | 199 | 426 | 54.2 | H (H: Papp > 1*10-6) | 13.4 | 96.4 | > 200 | > 200 | > 200 | > 200 | > 200 | > 200 | 167 | > 200 | 100 | 51.4 ± 19.2 | 6.53 | 7.49 ± 1.73 | Papp 3 (PAMPA) ([1]; FeSSIF pH 5, replicate 3): 37.4 nm/s; Papp 4 (PAMPA) ([1]; FeSSIF pH 5, replicate 4): 373 nm/s; Papp 3 (PAMPA) ([1]; pH 7.4, replicate 3): 94.7 nm/s; Papp 4 (PAMPA) ([1]; pH 7.4, replicate 4): 12.3 nm/s; IC50 [6]: 0.56 µM; Sol 3 (solubility limit) ([3]; pH 7.4, replicate 3): > 200 µM
CC(=NOCc1ccc2ccccc2c1)c1c(C)cc(=O)n(O)c1O [Compound 1811] |  |  |  |  | 35.7 | H (H: Papp > 1*10-6) | 17.1 | 39.7 | 50 | 50 | 50 | > 200 | > 200 | > 200 | 167 | 100 | > 200 | 64.3 ± 25.2 | 71.3 | 1.4 ± 1.19 | Papp 3 (PAMPA) ([1]; pH 7.4, replicate 3): 40.2 nm/s; Papp 4 (PAMPA) ([1]; pH 7.4, replicate 4): 46 nm/s; Solubility limit category ([3]; pH 5.0 (fed simulated intestinal fluid)): partially soluble (partially soluble (100–1 µM)); Sol 3 (solubility limit) ([3]; pH 7.4, replicate 3): > 200 µM
CC(C)c1nc(CN(C)C(=O)N[C@H](C(=O)N[C@@H](Cc2ccccc2)C[C@H](O)[C@H](Cc2ccccc2)NC(=O)OCc2cncs2)C(C)C)cs1 [Ritonavir, ritonavir, reference compound] |  |  |  |  |  |  |  |  |  |  |  |  |  |  |  |  |  |  |  |  | half-life at 1 µM ([2]; both sexes, human liver microsomes, 1 µM compound, 30 min, NADPH): 23.3 min; microsomal CLint at 1 µM ([2]; both sexes, human liver microsomes, 1 µM compound, 30 min, NADPH, read-out: Clearance (intrinsic clearance, Clint)): 45.2 µL/min/mg
